Reference: patent US7759542B2, “Glycine N-methyltransferase (GNMT) animal model and use thereof” (priority 2007, dated 2010)
“And” between values parts separate entries of the source, which are not always exact repeats. Equal values may be shown once. “Also recorded” adds a separate entry of the source. Read-outs that look alike come from different tables or passages of the source.

Tests used:
HuH-7 cells = experiment: MTT cytotoxicity assay of AFB1 on HuH-7 cells; assay type: cell-based
Description: MTT assay was used to determine the cytotoxicity effect of AFB1. In brief, cells were seeded on 96 well plate. At the time of assay, culture medium was replaced by 100 μL fresh medium containing 10 μL of 5 mg/mL MTT stock solution for each well. After 4 hr of labeling cells with MTT, medium was removed then 100 μL DMSO was added to each well for 10 min at 37° C. Samples were mixed and read absorbance at 540 nm. For half lethal concentration (LC50) determination, seven thousand HuH-7 cells were seeded on 96 well plate for 18 hr. Cells were treated with different concentration of AFB1 and MTT assay was performed at series time points, triplicate for each set. The survival percentage is calculated by dividing the OD value of treatment group by solvent control group. For cytotoxicity assay, five thousand HuH-7 cells were infected with different amount of adenovirus or lentivirus carrying GNMT cDNA for 8 hr then refreshed medium for another 10 hr. After 72 hr of AFB1 treatment, MTT assay was performed to determine the survival percentage.
MTT assay was used to determine the percentage of survived cells. To optimize the condition of cytotoxicity assay, HuH-7 cells were treated with different concentrations of AFB1 for series time course. […] The cytotoxicity effect of treatment up to 16 μM AFB1 was obscure within 24 hr. […]

wild-type mice [1] = conditions: mouse, in vivo
Gnmt−/− mice = conditions: mouse, in vivo
wild-type mice [2] = conditions: mouse, in vivo; remark: listed apart in the source
GNMT-TG mice = conditions: mouse, in vivo
GNMT = assay type: cell-based

aflatoxin B1 [AFB1]
cytotoxicity effect (HuH-7 cells): obscure
HE staining of histological liver sections (wild-type mice [1]): no abnormalities
ALT (wild-type mice [1]; ip): 27.5 ± 0.71 U/L and 22.83 ± 3.92 U/L
AST (wild-type mice [1]; ip): 72.00 ± 58.92 U/L and 42.50 ± 8.22 U/L
Nodules <0.5 cm (wild-type mice [1]; ip): 0
Nodules >0.5 cm (wild-type mice [1]; ip): 0
HE staining of histological liver sections (Gnmt−/− mice): Dysplastic nodule, early HCC and fatty nodules; also recorded: Sclenosing HCC, Dysplastic nodule with focal fatty change
Nodules <0.5 cm (Gnmt−/− mice; ip): 3 and 6
Nodules >0.5 cm (Gnmt−/− mice; ip): 4 and 5
Pathological examination of liver (wild-type mice [2]): dysplasia and HCC
ALT (wild-type mice [2]; ip): 134 ± 112 and 109 ± 97
liver/body weight % (wild-type mice [2]; ip): 4.7 ± 0.3% and 4.0 ± 0.7%
Pathological examination of liver (GNMT-TG mice): normal pattern
ALT (GNMT-TG mice; ip): 61 ± 37 and 100 ± 73
liver/body weight % (GNMT-TG mice; ip): 4.5 ± 0.9% and 3.7 ± 0.4%
GNMT distribution following AFB1 treatment (GNMT): partly translocated to cell nuclei
